The source of these data is US20240270776A1, “PALLADIUM VINYL AND BUTADIENYL COMPOUNDS AS CHEMOTHERAPEUTIC AGENTS” (UNIVERSITÀ CA' FOSCARI VENEZIA, priority 2021, published 2024).

Common to all, as to assay type: cell-based
One test has as its system A2780 (ovarian cancer). In words: IC50 against tumor cell line A2780, CellTiter-Glo cell viability. The conditions noted are these: A2780 cells, 96 hours, mean ± standard deviation of triplicate. How it is done: (§1) Example 11: evaluation of the therapeutic efficacy of the compounds of the invention.
(§2) Tests were carried out to determine the inhibitory concentration (IC50) of the compounds of the invention against tumor cell lines and on a control cell line; for comparison, the same tests were carried out with the cisplatin compound.
(§3) The cell lines tested were: A2780 and A2780cis, (ovarian cancer), MDA-MB231 (triple-negative breast cancer) and DLD1 (colon cancer) and MRC-5 (control; lung fibroblasts).
(§4) The stock solutions were obtained in dimethyl sulfoxide for compounds I-X and in H^20 for cisplatin.
(§5) The cells were kept, in accordance with the protocols indicated by the suppliers, at 37° C. in an atmosphere containing 5% carbon dioxide. About 500 cells were plated on 96 different wells and kept under such conditions for 96 hours.
(§6) Cell viability was determined, after treatment of the cells with a 1:1 solution of CellTiter-Glo® (registered trademark of Promega Corp., Madison, Wisconsin, USA) and DPBS, with the Tecan Infinite® M1000 instrument. IC50 values were calculated from dose response curves. The means and standard deviations were obtained from tripled measurements.
(In general: ATP-based viability assays read luminescence as a measure of living cells.)

Test [1] has as its system A2780cis (ovarian cancer). In words: IC50 against tumor cell line A2780cis, CellTiter-Glo cell viability. How it is done:
as §1, §2, §3, §4, §5, §6

Test [2] has as its system MDA-MB231 (triple-negative breast cancer). In words: IC50 against tumor cell line MDA-MB231, CellTiter-Glo cell viability. The note with it: MDA-MB231 cells, 96 hours, mean ± standard deviation of triplicate. The procedure: as §1, §2, §3, §4, §5, §6
A further test deals with DLD1 (colon cancer). Put plainly: IC50 against tumor cell line DLD1, CellTiter-Glo cell viability. The conditions noted are these: DLD1 cells, 96 hours, mean ± standard deviation of triplicate. The procedure:
as §1, §2, §3, §4, §5, §6

Test [3] deals with MRC-5 (control; lung fibroblasts). In words: IC50 on control cell line MRC-5, CellTiter-Glo cell viability. The note with it: MRC-5 normal cells. How it is done: as §1, §2, §3, §4, §5, §6

Regarding `N.N.[Cl][Pt][Cl]` [CISPLATIN, cis-diaminodichloroplatin (II)], the IC50 with A2780 (ovarian cancer) worked out at 0.4 ± 0.1 µM; in test [1] (A2780cis cells, 96 hours, mean ± standard deviation of triplicate, read-out: IC50 (μM) A2780 cis), 27 ± 5 µM; in test [2], 37 ± 9 µM; with DLD1 (colon cancer), 0.63 ± 0.08 µM; in test [3] (96 hours, mean ± standard deviation of triplicate), 8 ± 1 µM.

As to `COC(=O)/C(C)=C(C(=O)OC)/C(C(=O)OC)=[C](/C(=O)OC)[Pd]1([Cl])[CH]2N(Cc3ccccc3)C=CN2CN2C=CN(Cc3ccccc3)[CH]21` (stereo not shown) [Compound VII], the “loss of activity between the two lines (A2780 to A2780cis)” value in test [1] (A2780 vs A2780cis) is recorded as “ca. one order of magnitude”. Further, the “activity against normal cells (MRC-5), in words” value in test [3] was “substantially inactive”.

For orientation: IC50 means the concentration at which inhibition is half-maximal.
